Measurements reported in US9272978B2, “Hydroxy acid ester compound of substituted phenol, preparation method and medical use thereof” (West China Hospital, Sichuan University, priority 2010, dated 2016).

Tests used:
Kunming mice = conditions: tail vein injection; for disappearance time of FRR (onset time) / recovery time (recovery of FRR): during determination of ED50; for Median effective dose (ED50), disappearance of forepaw righting reflex: up-and-down method
Protocol: (§1) 60 Kunming mice with half males and half females were randomly divided into the drug test group (propofol hydroxybutyrate of the present invention) (n=30) and the Diprivan™ control group (positive control drug Diprivan™) (n=30). Median effective doses (ED50) of the substituted phenol hydroxy acid ester and Diprivan™ were determined by the up-and-down method. In the test, the mice were injected with the drugs through the tail veins, with the disappearance of the forepaw righting reflex (FRR) of the mice as a judgment index of the end point of anesthesia; the recovery of FRR of the mice as an index of recovery from anesthesia.
as §1, with “hydroxyvalerate” for “hydroxybutyrate”, “FRR” for “the forepaw righting reflex (FRR)”

[1] = mouse, rat or rabbit plasma, 37° C., 10 mg/ml solution, 0 min to 4 h, HPLC
Protocol: Three parallel solutions of propofol hydroxybutyrate of Example 1 with a concentration of 10 mg/ml were prepared, added into and mixed with the mouse, rat or rabbit plasma, which was pre-placed in water bath (37° C.), respectively.
Three parallel solutions of propofol hydroxyvalerate of Example 3 with a concentration of 10 mg/ml were prepared, added into and mixed with mouse, rat or rabbit plasma, which was pre-placed in water bath (37° C.), respectively.

[2] = disclosed in WO200213810; cited from earlier work
[3] = disclosed in WO200213810; cited from earlier work; remark: listed apart in the source

Row | SMILES | anesthetic effect (Kunming mice) | disappearance time of FRR (onset time) (Kunming mice) [s] | recovery time (recovery of FRR) (Kunming mice) [s] | Median effective dose (ED50), disappearance of forepaw righting reflex (Kunming mice) [mg/kg] | in vitro decomposition in the plasma into the active compound propofol [1] | water-solubility [2] | stability in aqueous solution [3]
1 | CC(C)c1cccc(C(C)C)c1OC(=O)CCCO [propofol hydroxybutyrate, propofol ω-hydroxybutyrate] | definite and reversible anesthetic effect | 45.3 ± 12.3 | 235.6 ± 67.9 | 52 | can be rapidly decomposed into the active compound propofol |  | 
2 | CC(C)c1cccc(C(C)C)c1OC(=O)CCCCO [propofol hydroxyvalerate, propofol ω-hydroxyvalerate] |  | 46.1 ± 9.5 | 256.1 ± 61.2 | 60 | can be rapidly decomposed into the active compound propofol |  | 
3 | CC(C)c1cccc(C(C)C)c1OC(=O)CCC(=O)[O-].[Na+] [propofol succinic acid monoester sodium salt] |  |  |  |  |  | high water-solubility | unstable in aqueous solution
